Measurements as given in patent US9884818B2, “Sulphamoylpyrrolamide derivatives and the use thereof as medicaments for the treatment of hepatitis B” (Janssen Sciences Ireland UC, priority 2013, dated 2018).

What was measured:
HBV [1] = experiment: Anti-HBV activity, HepG2.2.15 stable transfected cell line, HBV DNA from secreted virions by realtime PCR; type: cell-based; conditions: Hepatitis B virus, HepG2.2.15, 144 h, HepG2.2.15 cells, 6 days of treatment, HBV DNA from secreted virions; read-out: HepG2 2.15 EC50
HBV [2] = experiment: Anti-HBV activity, HepG2.117 inducibly HBV producing cell line (Tet-off), intracellular HBV DNA by realtime PCR; type: cell-based; conditions: Hepatitis B virus, HepG2.117, 72 h, HepG2.117 cells, 3 days of treatment, intracellular HBV DNA; read-out: HepG2 117 EC50
[3] = Cytotoxicity in HepG2 cells, Resazurin viability assay; conditions: human, HepG2 cells, HepG2 4 days CC50 (μM), incubated for 4 days, Resazurin assay

Work on `Cn1cc(S(=O)(=O)NC(C)(C)CF)cc1C(=O)Nc1ccc(F)c(Cl)c1F` [Compound 261] yielded an EC50 (HBV [1]) of 40 nM, an EC50 (HBV [2]) of 130 nM and a CC50 at 4 days [3] of over 25 µM.

For `C[C@@H](NS(=O)(=O)c1cc(C(=O)Nc2cccc(F)c2F)n(C)c1)C(F)(F)F` [Compound 203, N-(2,3-Difluorophenyl)-1-methyl-4-{[(1R)-2,2,2-trifluoro-1-methyl-ethyl]sulfamoyl}-1H-pyrrole-2-carboxamide], the EC50 (HBV [1]) was 380 nM, the EC50 (HBV [2]) was 470 nM and the CC50 at 4 days [3] was over 25 µM.

For `C[C@@H](NS(=O)(=O)c1cc(C(=O)Nc2ccc(F)c(C#N)c2)n(C)c1)C(C)(F)F` [Compound 298, N-(3-cyano-4-fluoro-phenyl)-4-[[(1R)-2,2-difluoro-1-methyl-propyl]-sulfamoyl]-1-methyl-pyrrole-2-carboxamide], the EC50 (HBV [1]) was 20 nM, the EC50 (HBV [2]) was 50 nM and the CC50 at 4 days [3] was 23.7 µM.

With `CC(C)NS(=O)(=O)c1cn(C)c(C(=O)Nc2ccc(F)c(C#N)c2)c1Cl` [Compound 269, 3-Chloro-N-(3-cyano-4-fluorophenyl)-1-methyl-4-[(1-methylethyl)sulfamoyl]-1H-pyrrole-2-carboxamide] the EC50 (HBV [1]) was 50 nM, the EC50 (HBV [2]) was 70 nM and the CC50 at 4 days [3] was over 25 µM.

`Cn1cc(S(=O)(=O)NC(C)(C)C)c(F)c1C(=O)Nc1ccc(F)c(F)c1F` [Compound 213, 4-(tert-Butylsulfamoyl)-3-fluoro-1-methyl-N-(2,3,4-trifluorophenyl)-1H-pyrrole-2-carboxamide] showed an EC50 (HBV [1]) of 210 nM, an EC50 (HBV [2]) of 310 nM and a CC50 at 4 days [3] of over 25 µM.

`Cc1cc(NC(=O)c2cc(S(=O)(=O)N[C@H](C)CS(C)(=O)=O)cn2C)ccc1F` [Compound 97, N-(4-Fluoro-3-methylphenyl)-1-methyl-4-{[(1R)-1-methyl-2-(methyl-sulfonyl)ethyl]sulfamoyl}-1H-pyrrole-2-carboxamide] showed an EC50 (HBV [1]) of 30 nM, an EC50 (HBV [2]) of 30 nM and a CC50 at 4 days [3] of over 25 µM.

Work on `Cn1cc(S(=O)(=O)NC2(C(F)(F)F)CCOC2)cc1C(=O)Nc1ccc(F)c(Cl)c1F` (stereo not drawn) [Compound 266, N-(3-chloro-2,4-difluoro-phenyl)-1-methyl-4-{[3-(trifluoromethyl)-tetrahydrofuran-3-yl]sulfamoyl}-1H-pyrrole-2-carboxamide] yielded an EC50 (HBV [1]) of 20 nM, an EC50 (HBV [2]) of 30 nM and a CC50 at 4 days [3] of over 25 µM.

In the case of `C[C@@H](NS(=O)(=O)c1cn(C)c(C(=O)Nc2ccc(F)c(C#N)c2F)c1F)C(F)(F)F` [Compound 181, N-(3-Cyano-2,4-difluorophenyl)-3-fluoro-1-methyl-4-{[(1R)-2,2,2-trifluoro-1-methylethyl]sulfamoyl}-1H-pyrrole-2-carboxamide], the EC50 (HBV [1]) is reported as 8 nM, the EC50 (HBV [2]) is reported as 6 nM and the CC50 at 4 days [3] is reported as over 25 µM.

Work on `Cn1cc(S(=O)(=O)NC(C)(C)C)cc1C(=O)Nc1ccc(F)c(C#N)c1` [Compound 190, 4-(tert-Butylsulfamoyl)-N-(3-cyano-4-fluorophenyl)-1-methyl-1H-pyrrole-2-carboxamide] yielded an EC50 (HBV [1]) of 90 nM, an EC50 (HBV [2]) of 100 nM and a CC50 at 4 days [3] of over 25 µM.

In the case of `Cc1c(F)ccc(NC(=O)c2cc(S(=O)(=O)N[C@@H](C)C(F)(F)F)cn2C)c1F` [Compound 119, N-(2,4-Difluoro-3-methylphenyl)-1-methyl-4-{[(1S)-2,2,2-trifluoro-1-methylethyl]sulfamoyl}-1H-pyrrole-2-carboxamide], the EC50 (HBV [1]) is reported as 30 nM, the EC50 (HBV [2]) is reported as 10 nM and the CC50 at 4 days [3] is reported as over 25 µM.

`C[C@@H](NS(=O)(=O)c1c(F)c(C(=O)Nc2ccc(F)c(C#N)c2)n(C)c1C#N)C(F)(F)F` [Compound 310, 5-cyano-N-(3-cyano-4-fluoro-phenyl)-3-fluoro-1-methyl-4-[[(1R)-2,2,2-trifluoro-1-methyl-ethyl]sulfamoyl]pyrrole-2-carboxamide] showed an EC50 (HBV [1]) of 70 nM, an EC50 (HBV [2]) of 160 nM and a CC50 at 4 days [3] of over 25 µM.

`Cn1cc(S(=O)(=O)NC2(C(F)(F)F)CCC2)c(Cl)c1C(=O)Nc1ccc(F)c(Cl)c1F` [Compound 219, 3-Chloro-N-(3-chloro-2,4-difluorophenyl)-1-methyl-4-{[1-(trifluoro-methyl)cyclobutyl]sulfamoyl}-1H-pyrrole-2-carboxamide] showed an EC50 (HBV [1]) of 10 nM, an EC50 (HBV [2]) of 9 nM and a CC50 at 4 days [3] of over 25 µM.

Work on `C[C@@H](NS(=O)(=O)c1cc(C(=O)Nc2ccc(F)c(C#N)c2)n(C)c1)C(F)(F)F` [Compound 157, N-(3-cyano-4-fluoro-phenyl)-1-methyl-4-[[(1R)-2,2,2-trifluoro-1-methylethyl]sulfamoyl]pyrrole-2-carboxamide] yielded an EC50 (HBV [1]) of 80 nM, an EC50 (HBV [2]) of 50 nM and a CC50 at 4 days [3] of over 25 µM.

Work on `Cn1cc(S(=O)(=O)NCC(F)(F)F)cc1C(=O)Nc1ccc(F)c(Cl)c1` [Compound 131, N-(3-Chloro-4-fluorophenyl)-1-methyl-4-[(2,2,2-trifluoroethyl)sulfamoyl]-1H-pyrrole-2-carboxamide] yielded an EC50 (HBV [1]) of 10 nM, an EC50 (HBV [2]) of 10 nM and a CC50 at 4 days [3] of over 25 µM.

In the case of `C[C@@H](NS(=O)(=O)c1cn(C)c(C(=O)Nc2ccc(F)c(C#N)c2)c1Cl)C(F)(F)F` [Compound 199, 3-Chloro-N-(3-cyano-4-fluorophenyl)-1-methyl-4-{[(1R)-2,2,2-trifluoro-1-methylethyl]sulfamoyl}-1H-pyrrole-2-carboxamide], the EC50 (HBV [1]) is reported as 6 nM, the EC50 (HBV [2]) is reported as 8 nM and the CC50 at 4 days [3] is reported as over 25 µM.

With `C[C@@H](NS(=O)(=O)c1cn(C)c(C(=O)Nc2cc(Cl)c(F)c(C#N)c2)c1F)C(F)(F)F` [Compound 313, N-(3-chloro-5-cyano-4-fluoro-phenyl)-3-fluoro-1-methyl-4-[[(1R)-2,2,2-trifluoro-1-methyl-ethyl]sulfamoyl]pyrrole-2-carboxamide] the EC50 (HBV [1]) was 20 nM, the EC50 (HBV [2]) was 50 nM and the CC50 at 4 days [3] was over 25 µM.

For `Cn1cc(S(=O)(=O)NC2(C)CCOC2)cc1C(=O)Nc1ccc(F)c(F)c1` (stereo not drawn) [Compound 91, N-(3,4-Difluorophenyl)-1-methyl-4-[(3-methyltetrahydrofuran-3-yl)sulfamoyl]-1H-pyrrole-2-carboxamide], the EC50 (HBV [1]) was 60 nM, the EC50 (HBV [2]) was 40 nM and the CC50 at 4 days [3] was over 25 µM.

`Cn1cc(S(=O)(=O)NC(C)(C)C)c(Cl)c1C(=O)Nc1ccc(F)c(C#N)c1` [Compound 226, 4-(tert-Butylsulfamoyl)-3-chloro-N-(3-cyano-4-fluorophenyl)-1-methyl-1H-pyrrole-2-carboxamide] gave an EC50 (HBV [1]) of 190 nM, an EC50 (HBV [2]) of 210 nM and a CC50 at 4 days [3] of over 25 µM.

For `Cn1cc(S(=O)(=O)NC(C)(C)C)c(F)c1C(=O)Nc1ccc(F)c(Cl)c1F` [Compound 212, 4-(tert-Butylsulfamoyl)-N-(3-chloro-2,4-difluorophenyl)-3-fluoro-1-methyl-1H-pyrrole-2-carboxamide], the EC50 (HBV [1]) was 90 nM, the EC50 (HBV [2]) was 40 nM and the CC50 at 4 days [3] was over 25 µM.

With `Cn1cc(S(=O)(=O)NC2(C)COC2)cc1C(=O)Nc1cc(Cl)cc(C#N)c1` [Compound 87, N-(3-Chloro-5-cyanophenyl)-1-methyl-4-[(3-methyloxetan-3-yl)sulfamoyl]-1H-pyrrole-2-carboxamide] the EC50 (HBV [1]) was 960 nM, the EC50 (HBV [2]) was over 1000 nM and the CC50 at 4 days [3] was over 25 µM.

`C[C@@H](NS(=O)(=O)c1cn(C)c(C(=O)Nc2cccc(Br)c2)c1Cl)C(F)(F)F` [Compound 250, N-(3-Bromophenyl)-3-chloro-1-methyl-4-{[(1R)-2,2,2-trifluoro-1-methylethyl]sulfamoyl}-1H-pyrrole-2-carboxamide] showed an EC50 (HBV [1]) of 7 nM, an EC50 (HBV [2]) of 400 nM and a CC50 at 4 days [3] of 20 µM.

Work on `Cc1cc(NC(=O)c2cc(S(=O)(=O)NCC3(C)COC3)cn2C)ccc1F` [Compound 7, N-(4-fluoro-3-methyl-phenyl)-1-methyl-4-[(3-methyloxetan-3-yl)methylsulfamoyl]pyrrole-2-carboxamide] yielded an EC50 (HBV [1]) of 120 nM, an EC50 (HBV [2]) of 100 nM and a CC50 at 4 days [3] of over 25 µM.

`C[C@@H](NS(=O)(=O)c1cn(C)c(C(=O)Nc2ccc(F)c(F)c2)c1F)C(F)(F)F` [Compound 229, N-(3,4-Difluorophenyl)-3-fluoro-1-methyl-4-{[(1R)-2,2,2-trifluoro-1-methylethyl]sulfamoyl}-1H-pyrrole-2-carboxamide] gave an EC50 (HBV [1]) of 4 nM, an EC50 (HBV [2]) of 4 nM and a CC50 at 4 days [3] of over 25 µM.

Compound `Cn1cc(S(=O)(=O)NC2(C)COC2)c(F)c1C(=O)Nc1cc(F)c(F)cc1F` [Compound 109, 3-Fluoro-1-methyl-4-[(3-methyloxetan-3-yl)sulfamoyl]-N-(2,4,5-trifluorophenyl)-1H-pyrrole-2-carboxamide] has an EC50 (HBV [1]) of 240 nM, an EC50 (HBV [2]) of 100 nM and a CC50 at 4 days [3] of over 25 µM.

With `Cn1cc(S(=O)(=O)NC(C)(C)C)c(F)c1C(=O)Nc1ccc(F)c(C#N)c1` [Compound 214, 4-(tert-Butylsulfamoyl)-N-(3-cyano-4-fluorophenyl)-3-fluoro-1-methyl-1H-pyrrole-2-carboxamide] the EC50 (HBV [1]) was 60 nM, the EC50 (HBV [2]) was 20 nM and the CC50 at 4 days [3] was over 25 µM.

`CCn1cc(S(=O)(=O)N[C@H]2CCOC2)cc1C(=O)Nc1ccc(F)c(C)c1` [Compound 30, 1-ethyl-N-(4-fluoro-3-methyl-phenyl)-4-[[(3S)-tetrahydrofuran-3-yl]-sulfamoyl]pyrrole-2-carboxamide] showed an EC50 (HBV [1]) of 450 nM, an EC50 (HBV [2]) of 330 nM and a CC50 at 4 days [3] of over 25 µM.

In the case of `Cn1cc(S(=O)(=O)NC2(C)COC2)c(F)c1C(=O)Nc1cccc(Br)c1` [Compound 251, N-(3-Bromophenyl)-3-fluoro-1-methyl-4-[(3-methyloxetan-3-yl)sulfamoyl]-1H-pyrrole-2-carboxamide], the EC50 (HBV [1]) is reported as 10 nM, the EC50 (HBV [2]) is reported as 60 nM and the CC50 at 4 days [3] is reported as over 25 µM.

For `Cc1c(S(=O)(=O)N[C@H](C)C(F)(F)F)cn(C)c1C(=O)Nc1ccc(F)c(Cl)c1F` [Compound 210, N-(3-Chloro-2,4-difluorophenyl)-1,3-dimethyl-4-{[(1R)-2,2,2-trifluoro-1-methylethyl]sulfamoyl}-1H-pyrrole-2-carboxamide], the EC50 (HBV [1]) was 50 nM, the EC50 (HBV [2]) was 50 nM and the CC50 at 4 days [3] was over 25 µM.
